Experimental data taken from PubChem BioAssay (NCI).
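The compound was tested at five concentrations on cells cultured in 96-well plates, with a 48-hour exposure period. At the TGI there is no net growth.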

Columns and labels:
Experiment in all cases: inhibition of tumour cell growth, NCI panel, 48 h
[1] = system: PC-3 prostate
[2] = system: MALME-3M melanoma
[3] = system: SN12C renal
[4] = system: NCI-H226 lung
[5] = system: CCRF-CEM leukemia
[6] = system: RXF 393 renal
[7] = system: MDA-MB-435
[8] = system: HCT-116 colon
[9] = system: HT29 colon
[10] = system: SF-268 CNS
[11] = system: SK-MEL-2 melanoma
[12] = system: SR leukemia
[13] = system: SK-OV-3 ovarian
[14] = system: MDA-N
[15] = system: HCC-2998 colon
[16] = system: CAKI-1 renal
[17] = system: T-47D breast
[18] = system: SF-295 CNS
[19] = system: KM12 colon
[20] = system: HS 578T breast

| SMILES | TGI [1] [µM] | TGI [2] [µM] | TGI [3] [µM] | TGI [4] [µM] | TGI [5] [µM] | TGI [6] [µM] | TGI [7] [µM] | TGI [8] [µM] | TGI [9] [µM] | TGI [10] [µM] | TGI [11] [µM] | TGI [12] [µM] | TGI [13] [µM] | TGI [14] [µM] | TGI [15] [µM] | TGI [16] [µM] | TGI [17] [µM] | TGI [18] [µM] | TGI [19] [µM] | TGI [20] [µM] |
| --- | --- | --- | --- | --- | --- | --- | --- | --- | --- | --- | --- | --- | --- | --- | --- | --- | --- | --- | --- | --- |
| c1ccc(-c2nnc(SCc3c[nH]c4ccccc34)n2-c2ccccc2)cc1 | 93.9 | > 100 | > 100 | > 100 | > 100 | 52.5 | > 100 | > 100 | > 100 | > 100 | > 100 | > 100 | > 100 | > 100 | > 100 | > 100 | > 100 | > 100 | > 100 | 93.5 |
| COc1cccc(C2ON=C(c3ccccc3)N2C23CC4CC(CC(C4)C2)C3)c1 (stereo not given) | > 10 | > 10 | > 10 | > 10 | > 10 | > 10 | > 10 | > 10 | > 10 | > 10 | > 10 | > 10 | > 10 | > 10 | > 10 | > 10 | > 10 | > 10 | > 10 | > 10 |
| COC(=O)C(C(=O)C(=O)Nc1ccccc1C#N)c1nc2ccc([N+](=O)[O-])cc2[nH]c1=O (stereo not given) | > 100 | > 100 | > 100 | > 100 | > 100 | > 100 | > 100 | > 100 | > 100 | > 100 | > 100 | > 100 | > 100 | > 100 | > 100 | > 100 | > 100 | > 100 | > 100 | > 100 |
| COc1cc(/C=C/c2nc(N)nnc2C)cc(OC)c1OC | > 53 | 32.8 | > 100 | > 55.4 | 55.4 | > 64.4 | > 94.7 | > 53.9 | 39 | > 54.4 | > 54.4 | > 100 | > 65.6 | > 100 | 29.5 | > 100 | > 100 | > 72.6 | > 50.5 | > 67.5 |
| c1cc2nnc1SCCCSc1ccc(nn1)SCCCSc1ccc(nn1)SCCCS2 | > 100 | > 100 | > 100 | > 100 | > 100 | > 100 | > 100 | > 100 | > 100 | > 100 | > 100 | > 100 | > 100 | > 100 | > 100 | > 100 | > 100 | > 100 | > 100 | > 100 |
| COC(=O)/C=C(/C(=O)OC)c1cc2ccc3c([nH]c4ccccc43)c(C)c-2c1 | 14.2 | 19.6 | 27 | 19.8 | 10.8 | > 100 | 25.1 | 16.3 | 8.9 | 21.4 | 26.8 | 8.59 | 36.9 | 9.9 | 13 | > 100 | > 100 | 16.4 | 36.5 | 8.91 |
